Experimental data from article PMC10313921, “A living ex vivo platform for functional, personalized brain cancer diagnosis” (Cell Reports Medicine, 2023).
pEC50, pIC50: −log10 of the molar value.

What was measured:
[1] = system: MB231Br (breast cancer metastasis to brain); experiment: Drug screening of MB231Br tumor foci on OBSCs; format: cell-based, human; details: for pEC50 / EC90 / pIC50: Homo sapiens; for pEC50: dose required to kill 50% of the tumor; for EC90: dose required to kill 90% of the tumor; for pIC50: MB231Br on OBSCs, dosed day 1, survival via bioluminescence day 4, linear interpolation; for Slope: slope through the EC50
[2] = system: LN229 (established GBM line); experiment: Drug screening of LN229 tumor foci on OBSCs; format: cell-based, human; details: for pEC50 / EC90 / pIC50: Homo sapiens; for pEC50: LN-229, dose required to kill 50% of the tumor; for EC90: LN-229, dose required to kill 90% of the tumor; for pIC50: LN-229, dosed day 1, survival via bioluminescence day 4, linear interpolation; for AUC: area under the dose-response curve, trapezoidal rule; for EC10: dose required to kill 10% of the tumor; for EC25: dose required to kill 25% of the tumor; for Slope: slope through the EC50
Procedure, shortened: (§1)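 Scores integrate therapeutic windows between tumor kill and slice toxicity (at DSS thresholds, EC50 slopes, curve areas) plus tumor-behavior parameters, giving −100 to +100. Tumor viability came from bioluminescence three days after drug or radiation, normalized to day-one fluorescence.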

[3] = system: U373WT (wild-type established GBM line); experiment: Drug screening of U373WT tumor foci on OBSCs; format: cell-based, human; details: U373 WT on OBSCs; for pEC50 / EC90 / pIC50: Homo sapiens, U373 MG; for pEC50: dose required to kill 50% of the tumor; for EC90: dose required to kill 90% of the tumor; for pIC50: dosed day 1, survival via bioluminescence day 4, linear interpolation; for AUC: area under the dose-response curve, trapezoidal rule; for EC10: dose required to kill 10% of the tumor; for Slope: slope through the EC50
Procedure, shortened: as §1

[4] = system: U373KO (RAD18 knockout of U373WT via CRISPR); experiment: Drug screening of U373KO tumor foci on OBSCs; format: cell-based, human; details: U373 KO on OBSCs; for pEC50 / EC90 / pIC50: Homo sapiens, U373 MG; for pEC50: dose required to kill 50% of the tumor; for EC90: dose required to kill 90% of the tumor; for pIC50: dosed day 1, survival via bioluminescence day 4, linear interpolation; for AUC: area under the dose-response curve, trapezoidal rule
Procedure, shortened: as §1

[5] = system: GBM8 (high-passage patient-derived GBM line); experiment: Drug screening of GBM8 tumor foci on OBSCs; format: cell-based, human; details: for Killing at highest dose / AUC / EC10 / EC25 / EC75 / Slope / pEC50 / pIC50: GBM8 on OBSCs; for AUC: area under the dose-response curve, trapezoidal rule; for EC10: dose required to kill 10% of the tumor; for EC25: dose required to kill 25% of the tumor; for EC75: dose required to kill 75% of the tumor; for Slope: slope through the EC50; for EC90 / pEC50 / pIC50: Homo sapiens; for pEC50: dose required to kill 50% of the tumor, read-out: EC50; for pIC50: dosed day 1, survival via bioluminescence day 4, linear interpolation, read-out: IC50
Procedure, shortened: as §1

[6] = system: MS21 (low-passage patient-derived GBM line); experiment: Drug screening of MS21 tumor foci on OBSCs; format: cell-based, human; details: for EC90 / pEC50 / pIC50: Homo sapiens; for pEC50: dose required to kill 50% of the tumor, read-out: EC50; for pIC50: dosed day 1, survival via bioluminescence day 4, linear interpolation, read-out: IC50
Procedure, shortened: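 Luciferase-expressing tumor cells seeded onto organotypic brain slice cultures; one day later treated with six drug concentrations in the medium, or X-irradiation. Bioluminescence read three days after treatment, normalised to day-one fluorescence and untreated controls. Dose-response values by linear interpolation; DSS combines weighted tumor-kill versus slice-toxicity parameters (−100 to 100).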

[7] = system: PDIPG (low-passage pediatric patient-derived line); experiment: Drug screening of PDIPG tumor foci on OBSCs; format: cell-based, human; details: for EC90 / pEC50 / pIC50: Homo sapiens; for pEC50: dose required to kill 50% of the tumor, read-out: EC50; for pIC50: dosed day 1, survival via bioluminescence day 4, linear interpolation, read-out: IC50; for AUC: area under the dose-response curve, trapezoidal rule; for EC25: dose required to kill 25% of the tumor; for Slope: slope through the EC50
Procedure, shortened: as §1

[8] = system: PIS patient tumor tissue (intracranial sarcoma); experiment: Drug screening of uncultured patient tumor tissue PIS on OBSCs; format: cell-based, human; details: Homo sapiens; PIS on OBSCs; dose required to kill 90% of the tumor
Procedure, shortened: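 Uncultured patient tumour tissue, transduced with mCherry-FLuc lentivirus, engrafted on organotypic brain slice cultures (OBSCs); six drug concentrations or X-ray dosing given one day after seeding, n = 4 foci per concentration. Bioluminescence with luciferin read three days post-treatment, normalised to day one and untreated controls; drug sensitivity score combines weighted therapeutic-window parameters versus OBSC toxicity (−100 to 100).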

[9] = system: MMG-II patient tumor tissue (WHO grade II meningioma, multiple tumors); experiment: Drug screening of uncultured patient tumor tissue MMG-II on OBSCs; format: cell-based; details: Homo sapiens, dose required to kill 90% of the tumor
Procedure: Tumor cells were seeded onto OBSCs 2h after slicing as described above. One day after tumor seeding, six concentrations of each drug were diluted in the media underneath each culture insert, or XRad was applied using an X-Rad 320 Precision X-ray machine (n = 4 tumor foci per concentration; n ≥ 24 tumor foci per drug per cell line). Three days after treatment, the bioluminescence of live tumor cells was measured using an AMI optical imager (Spectral Instruments) and dose-response curves were generated. Tumor survival was normalized to day one tumor fluorescence and compared to an untreated control group.
To engraft onto OBSCs, the cryopreserved/thawed or fresh brain tumor tissue was filtered through a 100 μm cell strainer. Each 50 mg of tissue was transfected with 1mL mcherry-FLuc Lentivirus at 1.5e7 vg/ml with 1μL polybrene for 4h at 37°C. After incubation, the brain tumor tissue was washed with PBS three times to remove the residual virus and reconstituted in PBS with a final volume of 150 μL. […] The viability of the patient tissue was measured by an AMI optical imaging system with the addition of 1.5 mg/mL luciferin underneath the culture insert. […]
For DSS parameters 1–6, therapeutic windows were calculated by comparing OBSC toxicity and tumor response at the doses where tumor kill passed through the DSS parameter (Table S1 and S3). For DSS parameter 7, the therapeutic window was calculated by comparing the slopes through the tumor EC50 and the OBSC tox EC50. For DSS parameter 8, the therapeutic window was calculated by comparing the areas under tumor kill and OBSC tox curves. Normalized therapeutic window ratios for DSS parameters 1–8 within each drug-tumor-OBSC interaction were calculated in the following manner: within each window, values ranged from +1 to −1, where values approaching +1 signify increasing tumor kill relative to normal tissue toxicity, and values approaching −1 indicate agents where tumors remained highly viable while toxicity to the normal OBSC tissue was elevated. […]

[10] = dose required to kill 25% of the tumor

Structure (SMILES): Nc1ccn([C@@H]2O[C@H](CO)[C@@H](O)C2(F)F)c(=O)n1 [Gemcitabine]
- pEC50 ([1]; MB231BR on OBSCs): < 5.00
- EC90 ([1]; MB231BR on OBSCs): > 10 µM
- pIC50 [1]: < 5.00
- Killing at highest dose ([1]; MB231BR on OBSCs): -7.90E-01 fraction of tumor population killed
- Slope ([1]; MB231BR on OBSCs): 1.56E-02
- Killing at highest dose [2]: 2.80E-01 fraction of tumor population killed
- pEC50 [2]: < 5.00
- EC90 [2]: > 10 µM
- pIC50 [2]: < 5.00
- AUC [2]: 7.06E+01
- EC10 [2]: 6.23 µM
- EC25 [2]: 8.4 µM
- Slope [2]: -5.45E-03
- pEC50 [3]: < 5.00
- EC90 [3]: > 10 µM
- pIC50 [3]: < 5.00
- Killing at highest dose [3]: 3.30E-01 fraction of tumor population killed
- AUC [3]: 7.29E+01
- EC10 [3]: 0.385 µM
- EC25 [3, 10]: 50 µM
- Slope [3]: -1.60E-03
- pEC50 [4]: 6.06
- EC90 [4]: > 10 µM
- pIC50 [4]: 6.05
- Killing at highest dose [4]: 6.20E-01 fraction of tumor population killed
- AUC [4]: 3.67E+01
- EC10 ([4]; dose required to kill 10% of the tumor): 0.139 µM
- EC25 [4, 10]: 0.347 µM
- Slope ([4]; slope through the EC50): -3.80E-01
- Killing at highest dose [5]: 9.80E-01 fraction of tumor population killed
- AUC [5]: 2.79E+00
- EC10 [5]: 0.0676 µM
- EC25 [5]: 0.169 µM
- EC75 [5]: 0.533 µM
- Slope [5]: -1.48E+00
- EC90 [5]: 2 µM
- pEC50 [5]: 6.47
- pIC50 [5]: 6.47
- EC90 [6]: > 10 µM
- pEC50 ([6]; MS21 on OBSCs): < 5.00
- pIC50 ([6]; MS21 on OBSCs): < 5.00
- Killing at highest dose ([6]; MS21 on OBSCs): -1.20E-01 fraction of tumor population killed
- EC90 [7]: > 10 µM
- pEC50 ([7]; PDIPG on OBSCs): < 5.00
- pIC50 ([7]; PDIPG on OBSCs): < 5.00
- Killing at highest dose ([7]; PDIPG on OBSCs): 4.80E-01 fraction of tumor population killed
- AUC ([7]; PDIPG on OBSCs): 5.72E+01
- EC25 ([7]; PDIPG on OBSCs): 0.284 µM
- Slope ([7]; PDIPG on OBSCs): -3.03E-04
- EC90 [8]: > 10 µM
- EC90 [9]: > 10 µM

Structure (SMILES): CC[C@]1(O)C[C@H]2CN(CCc3c([nH]c4ccccc34)[C@@](C(=O)OC)(c3cc4c(cc3OC)N(C=O)[C@H]3[C@@](O)(C(=O)OC)[C@H](OC(C)=O)[C@]5(CC)C=CCN6CC[C@]43[C@@H]65)C2)C1 [Vincristine]
- pEC50 ([1]; MB231BR on OBSCs): < 5.00
- EC90 ([1]; MB231BR on OBSCs): > 10 µM
- pIC50 [1]: < 5.00
- Killing at highest dose ([1]; MB231BR on OBSCs): 7.00E-02 fraction of tumor population killed
- AUC ([1]; MB231BR on OBSCs, area under the dose-response curve, trapezoidal rule): 1.02E+01
- Slope ([1]; MB231BR on OBSCs): -1.89E-02
- Killing at highest dose [2]: 4.10E-01 fraction of tumor population killed
- pEC50 [2]: < 5.00
- EC90 [2]: > 10 µM
- pIC50 [2]: < 5.00
- AUC [2]: 6.37E+00
- EC10 [2]: 0.00667 µM
- EC25 [2]: 0.418 µM
- Slope [2]: -8.89E-03
- pEC50 [3]: < 5.00
- EC90 [3]: > 10 µM
- pIC50 [3]: < 5.00
- Killing at highest dose [3]: -6.60E-01 fraction of tumor population killed
- AUC [3]: 1.36E+01
- EC10 [3]: 0.82 µM
- Slope [3]: 5.78E-02
- pEC50 [4]: < 5.00
- EC90 [4]: > 10 µM
- pIC50 [4]: < 5.00
- Killing at highest dose [4]: -7.40E-01 fraction of tumor population killed
- AUC [4]: 1.89E+01
- Killing at highest dose [5]: 1.00E+00 fraction of tumor population killed
- AUC [5]: 2.38E-01
- EC10 [5]: 0.00435 µM
- EC25 [5]: 0.0129 µM
- EC75 [5]: 0.0843 µM
- Slope [5]: -7.00E+00
- EC90 [5]: 0.26 µM
- pEC50 [5]: 7.31
- pIC50 [5]: 7.30
- EC90 [6]: > 10 µM
- pEC50 ([6]; MS21 on OBSCs): 5.34
- pIC50 ([6]; MS21 on OBSCs): 5.34
- Killing at highest dose ([6]; MS21 on OBSCs): 5.30E-01 fraction of tumor population killed
- AUC ([6]; MS21 on OBSCs, area under the dose-response curve, trapezoidal rule): 5.22E+00
- EC10 ([6]; MS21 on OBSCs, dose required to kill 10% of the tumor): 0.00526 µM
- EC25 ([6]; MS21 on OBSCs, dose required to kill 25% of the tumor): 0.172 µM
- Slope ([6]; MS21 on OBSCs, slope through the EC50): -5.56E-03
- EC90 [7]: > 10 µM
- pEC50 ([7]; PDIPG on OBSCs): < 5.00
- pIC50 ([7]; PDIPG on OBSCs): < 5.00
- Killing at highest dose ([7]; PDIPG on OBSCs): 4.86E-01 fraction of tumor population killed
- AUC ([7]; PDIPG on OBSCs): 6.36E+00
- EC10 ([7]; PDIPG on OBSCs, dose required to kill 10% of the tumor): 0.242 µM
- EC25 ([7]; PDIPG on OBSCs): 0.406 µM
- Slope ([7]; PDIPG on OBSCs): -2.32E-02
- EC90 [8]: > 10 µM
- EC90 [9]: > 10 µM
